# Data taken from article PMC2225439, “Amyloid as a Depot for the Formulation of Long-Acting Drugs” (PLoS Biology, 2008).
# Assays:
# [1] = Electron microscopy of negative-stained samples; assay type: physicochemical; design: key to EM^8 / EM^30: fib, fibrils; nfib, no fibrils; conditions: 1 mg/ml in 5% D-mannitol, room temperature, at least two independent experiments
# Description: To formally determine the formation of amyloid fibrils by GnRH analogs and to characterize other possible assemblies present in the sample, EM was done on all of the GnRH analogs. Since the EM analysis is for a qualitative interpretation only, amyloid fibrils and other small aggregates might be observed under the electron microscope even if only a minority of the sample forms fibrils. Samples were studied after 8 and 30 d of incubation. […] The fibrils show a wide variety of morphologies, comprising helical ultrastructures with varying degrees of lateral association. Furthermore, the fibrils are composed of one or more filaments, resulting in overall diameters ranging from approximately 6 to 12 nm. No oligomers are observed for the long-acting compounds at day 8 or at day 30 (Figures 2 and S2).
# GnRH analogs were dissolved in a glass tube in 1 ml of 5% D-mannitol and 0.01% sodium azide at a concentration of 1 mg/ml. The GnRH analogs were then incubated at room temperature without stirring. The fibril formation was monitored by EM, CR, and time-resolved by Thio T binding studies. Three independent experiments were performed for each sample.
# A 5-μl aliquot of peptide sample was diluted into 50 μl of water to a peptide concentration of approximately 50 μM, spotted on a glow-discharged, carbon-coated Formvar grid (Electron Microscopy Sciences), incubated for 5 min, washed with distilled water, and then stained with 1% (w/v) aqueous uranyl formate solution. Uranyl formate solutions were filtered through 0.2-μm sterile syringe filters (Corning) before use. EM analysis was performed using a JEOL JEM-100CXII electron microscope at 80 kV with nominal magnifications between 36,000 and 72,000. Images were recorded digitally by using the SIS Megaview III imaging system. At least two independent experiments were carried out for each sample.
# α-Syn = molecular target: T1, α-Syn (Homo sapiens, UniProt P37840); test: Cross-seeding of α-Syn by L20 fibrils; conditions: matured fibrils 5% v/v with 400 μM α-Syn in PBS pH 7.4, 37 °C, vigorous stirring, 30 d; Thio T
# T1 construct: made in house
# Description: Although the seeding of amyloids requires a high amino acid sequence similarity between the protein/peptide of the seed and its soluble host counterpart, cross-seeding between different protein species have been documented. To test whether amyloids of long-acting GnRH analogs are able to cross-seed with a protein associated with Parkinson disease, α-Syn, a seeding reaction was done with a small amount of matured L20 fibrils (5% v/v) in the presence of α-Syn (95% v/v; 400 μM concentration of monomeric solution [pH 7.4] in PBS). The fibril growth of the mixture as well as α-Syn in PBS as control were followed over a period of 30 d by Thio T binding.
# (§1) A total of 5 μl of matured L20 fibril solution at a concentration of 1 mg/ml in 5% D-mannitol, 0.01% sodium azide was mixed with 95 μl of freshly prepared GnRH solution in the same solution condition followed by incubation at room temperature without stirring. […] Once a week, a 10-μl aliquot was diluted into 500 μl water containing 5% D-mannitol, 0.01% sodium azide, and 10 μl of 1 mM Thio T to measure the Thio T fluorescence as described above. […] The protein concentration of the supernatant was measured by UV absorbance with ɛ280 of 6,500 M^−1cm^−1. […] The formation of amyloid was monitored regularly for the mixture (α-Syn+L20) and α-Syn by Thio T binding.
# [2] = test system: plasma luteinizing hormone (LH) levels; conditions: duration of action class as listed in Table 1; castrated male rat assay; ref Tables S1 and S2; cited from earlier work
# Text: Table 1 Biochemical and Biophysical Properties of Aggregates By GnRH-Analogs | column: Action || Supplement pbio.0060017.st001.doc, table 1: Table S1: Short acting GnRH analogs with their duration of action | column: Duration of action^b || Supplement pbio.0060017.st002.doc, table 1: Table S2: Long acting GnRH analogs with their duration of action | column: Duration of action^b || (+ 2 further places)
# wild-type GnRH = molecular target: T2, wild-type GnRH (Homo sapiens, UniProt P01148); test: Seeding of wild-type GnRH by L20 fibrils; conditions: matured fibrils 5% v/v with GnRH solution 95% v/v, 5% D-mannitol, room temperature without stirring, 1 mo; Thio T and EM
# T2 construct: gonadotropin-releasing hormone (GnRH); made in house; host or cells: chemical solid-phase synthesis (no expression host)
# Text: Another concern for the application of amyloids in the formulation of long-acting drugs is the potential multiplication and spread of amyloids through seeding. Only a small amount of fibrillar seed is needed to induce and accelerate self-polymerization in the presence of monomeric amyloid protein/peptide. Within the context of GnRH, perhaps amyloids of the injected GnRH analogs may act as the seeds and the host GnRH as the reservoir of the free monomer. To mimic this situation in vitro, a seeding reaction was set up with a small amount of matured, long-acting L20 fibrils (5% v/v) in presence of a solution of wild-type GnRH (95% v/v). […]
# as §1
substance,measurement,setting,value
Ac-DNal-DCpa-Agl(Nic)-Ser-Aph(Ac)-DAph(Ac)-Leu-ILys-Pro-DAla-NH2 [L20],EM^8,[1]; electron microscopy at day 8 of incubation,fib
same,EM^30,[1]; electron microscopy at day 30 of incubation,fib
same,cross-seeding of α-Syn,α-Syn,did not significantly influence the aggregation of α-Syn
same,Action,[2],intermediate
same,seeding of wild-type GnRH,wild-type GnRH,unable to seed wild-type GnRH
